Laboratory results as given in the Kinase Knowledgebase extract (Sharma et al. 2016).
pIC50: −log10 of the molar value.

target: PIK3CB;PIK3CG;PIK3CD;PIK3CA (human) (UniProt P48736); assay: Enzyme Assay

| Structure (SMILES) | pIC50 |
| --- | --- |
| CSCc1ccc2nc(-n3ccnc3)nc(N3CCOCC3)c2n1 | 5.42 |
| COC(=O)c1cc(SC)c2nc(-c3cccc4[nH]ccc34)nc(N3CCOCC3)c2n1 | 5.90 |
| Cc1noc(-c2cc(Cl)c3nc(-n4ccnc4)nc(N4CCOCC4)c3n2)n1 | 5.48 |
| CSc1cc(-c2nc(C)no2)nc2c(N3CCOCC3)nc(-n3cccn3)nc12 | 6.66 |
| CSc1cc(CO)nc2c(N3CCOCC3)nc(-c3ccsc3)nc12 | 5.41 |
| Cc1noc(-c2ccc3nc(-n4ccnc4)nc(N4CCOCC4)c3n2)n1 | 6.10 |
| COC(=O)c1cc(S(C)(=O)=O)c2nc(Cl)nc(N3CCOCC3)c2n1 | 5.64 |
| COC(=O)c1cc(SC)c2nc(-c3cn[nH]c3)nc(N3CCOCC3)c2n1 | 5.90 |
| CSc1cc(C(=O)N(C)C)nc2c(N3CCOCC3)nc(-c3cccc4[nH]ncc34)nc12 | 6.07 |
| CSc1cc(-c2nnc(C)o2)nc2c(N3CCOCC3)nc(-n3ccnc3)nc12 | 6.49 |
| COCc1noc(-c2ccc3nc(-n4cccn4)nc(N4CCOCC4)c3n2)n1 | 6.08 |
| COC(=O)c1cc(SC)c2nc(-c3cnn(C)c3)nc(N3CCOCC3)c2n1 | 5.92 |
| COCc1noc(-c2ccc3nc(-n4ccnc4)nc(N4CCOCC4)c3n2)n1 | 6.19 |
| c1cnc2c(N3CCOCC3)nc(-n3ccnc3)nc2c1 | 5.28 |
| Cc1ccc2nc(Cl)nc(N3CCOCC3)c2n1 | 5.06 |
| COC(=O)c1cc(SC)c2nc(Cl)nc(N3CCOCC3)c2n1 | 5.45 |
| CSc1cc(C(=O)N(C)C)nc2c(N3CCOCC3)nc(-c3cccc(CO)c3)nc12 | 6.85 |
| COC(=O)c1cc(Cl)c2nc(Cl)nc(N3CCOCC3)c2n1 | 4.91 |
| Cc1noc(-c2ccc3nc(-n4cccn4)nc(N4CCOCC4)c3n2)n1 | 6.30 |
| COC(=O)c1ccc2nc(-c3ccccc3)nc(N3CCOCC3)c2n1 | 6.37 |
| COC(=O)c1cc(SC)c2nc(-c3ccsc3)nc(N3CCOCC3)c2n1 | 5.74 |
| COC(=O)c1cc(SC)c2nc(-c3ccccc3)nc(N3CCOCC3)c2n1 | 5.55 |
| COC(=O)c1cc(SC)c2nc(-c3ccc(OC)cc3)nc(N3CCOCC3)c2n1 | 4.94 |
| Cc1ccc2nc(-c3ccccc3)nc(N3CCOCC3)c2n1 | 5.74 |
| Cc1noc(-c2cc(N(C)C)c3nc(-n4cccn4)nc(N4CCOCC4)c3n2)n1 | 6.32 |

The next lines start with the values.

| pIC50 | Structure (SMILES) |
| --- | --- |
| 5.89 | COCCNc1cc(C(=O)OC)nc2c(N3CCOCC3)nc(-n3ccnc3)nc12 |
| 5.24 | COC(=O)c1cc(SC)c2nc(-c3ccncc3)nc(N3CCOCC3)c2n1 |
| 5.16 | COC(=O)c1cc(SC)c2nc(C)nc(N3CCOCC3)c2n1 |
| 6.38 | COC(=O)c1cc(N(C)C)c2nc(-n3ccnc3)nc(N3CCOCC3)c2n1 |
| 6.00 | COC(=O)c1cc(N2CCN(C)CC2)c2nc(-n3ccnc3)nc(N3CCOCC3)c2n1 |
| 5.53 | OCc1cc(N2CCOCC2)c2nc(-n3ccnc3)nc(N3CCOCC3)c2n1 |
| 6.23 | Cc1noc(-c2cc(N(C)C)c3nc(-n4ccnc4)nc(N4CCOCC4)c3n2)n1 |
| 5.64 | COCc1cc(SC)c2nc(-n3ccnc3)nc(N3CCOCC3)c2n1 |
| 6.46 | COC(=O)c1cc(SC)c2nc(-n3ccnc3)nc(N3CCOCC3)c2n1 |
| 6.24 | COC(=O)c1cc(S(C)(=O)=O)c2nc(-n3ccnc3)nc(N3CCOCC3)c2n1 |
| 5.75 | CN(C)CCNC(=O)c1cc(NCCN(C)C)c2nc(-n3ccnc3)nc(N3CCOCC3)c2n1 |
| 6.02 | Cc1ccc2nc(-n3ccnc3)nc(N3CCOCC3)c2n1 |
| 5.78 | COC(=O)c1cc(Cl)c2nc(-n3cccn3)nc(N3CCOCC3)c2n1 |
| 5.74 | NC(=O)c1ccc2nc(-n3ccnc3)nc(N3CCOCC3)c2n1 |
| 5.09 | COC(=O)c1cc(-n2cccc2)c2nc(-n3cccc3)nc(N3CCOCC3)c2n1 |
| 5.96 | CNC(=O)c1ccc2nc(-n3ccnc3)nc(N3CCOCC3)c2n1 |

| pIC50 | Structure (SMILES) |
| --- | --- |
| 6.64 | Cc1nnc(-c2cc(N(C)C)c3nc(-n4ccnc4)nc(N4CCOCC4)c3n2)o1 |
| 5.40 | OCc1ccc2nc(-n3ccnc3)nc(N3CCOCC3)c2n1 |
| 5.07 | COCc1cc(CN2CCOCC2)c2nc(-n3ccnc3)nc(N3CCOCC3)c2n1 |
| 5.72 | CN(C)CCNCc1ccc2nc(-n3ccnc3)nc(N3CCOCC3)c2n1 |
| 6.08 | COCc1ccc2nc(-n3ccnc3)nc(N3CCOCC3)c2n1 |
| 5.85 | COCCN(C)c1cc(C(=O)OC)nc2c(N3CCOCC3)nc(-n3ccnc3)nc12 |
| 6.38 | COCCN(C)c1cc(-c2nnc(C)o2)nc2c(N3CCOCC3)nc(-n3ccnc3)nc12 |
| 5.49 | CN(C)Cc1ccc2nc(-n3ccnc3)nc(N3CCOCC3)c2n1 |
| 6.09 | COC(=O)c1cc(Cl)c2nc(-n3ccnc3)nc(N3CCOCC3)c2n1 |
| 5.60 | COCCN(C)c1cc(-c2nc(C)no2)nc2c(N3CCOCC3)nc(-n3cccn3)nc12 |
| 5.94 | COCc1cc(N(C)C)c2nc(-n3ccnc3)nc(N3CCOCC3)c2n1 |
| 5.53 | CN(C)C(=O)c1ccc2nc(-n3ccnc3)nc(N3CCOCC3)c2n1 |
| 6.17 | COC(=O)c1cc(N2CCOCC2)c2nc(-n3ccnc3)nc(N3CCOCC3)c2n1 |
| 5.45 | CSc1cc(-c2nc(C)no2)nc2c(N3CCOCC3)nc(-n3ccnc3)nc12 |
| 6.14 | COC(=O)c1ccc2nc(-n3ccnc3)nc(N3CCOCC3)c2n1 |
